Data as given in the supplement of paper PMC10307832.

What was measured:
Assay in all cases: relative viability (nuclei count vs DMSO), 5 days (fraction); higher = more cells survive
Bromopyruvate + OSI-027 = compound: C(C(=O)C(=O)O)Br [Bromopyruvate] + COc1cccc2cc(-c3nc([C@H]4CC[C@H](C(=O)O)CC4)n4ncnc(N)c34)[nH]c12 [OSI-027] (partner 0.5 µM)
Summary of the method: (§1)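 Lung cancer cell lines were pin-tool dosed in 1536-well plates on the day after seeding, with either a lone drug or a fixed anchor-drug dose plus five library-drug doses (not always all listed) in √10 steps. Nuclei were counted on 4× images after 5 days. Relative viability is the ratio of treated-well to vehicle-well nuclei counts, with each value a median of duplicate plates.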

[1] = compound: C(C(=O)C(=O)O)Br [Bromopyruvate] + C[C@@H](Oc1cc(-c2cnn(C3CCNCC3)c2)cnc1N)c1c(Cl)ccc(F)c1Cl [Crizotinib] (partner 1 µM)
Summary of the method: as §1

[2] = compound: C(C(=O)C(=O)O)Br [Bromopyruvate] + Nc1ncn([C@H]2C[C@H](O)[C@@H](CO)O2)c(=O)n1 [Decitabine] (partner 2 µM)
Summary of the method: as §1

Bicalutamide + OSI-027 = compound: CC(O)(CS(=O)(=O)c1ccc(F)cc1)C(=O)Nc1ccc(C#N)c(C(F)(F)F)c1 [Bicalutamide] + COc1cccc2cc(-c3nc([C@H]4CC[C@H](C(=O)O)CC4)n4ncnc(N)c34)[nH]c12 [OSI-027] (partner 0.5 µM)
Summary of the method: as §1

Cell Line	relative viability (Bromopyruvate + OSI-027; first compound 1 µM)	relative viability (Bromopyruvate + OSI-027; first compound 3.162 µM)	relative viability (Bromopyruvate + OSI-027; first compound 10 µM)	relative viability (Bromopyruvate + OSI-027; first compound 31.62 µM)	relative viability (Bromopyruvate + OSI-027; first compound 100 µM)	relative viability ([1]; first compound 1 µM)	relative viability ([1]; first compound 3.162 µM)	relative viability ([1]; first compound 10 µM)	relative viability ([1]; first compound 31.62 µM)	relative viability ([1]; first compound 100 µM)	relative viability ([2]; first compound 1 µM)	relative viability ([2]; first compound 3.162 µM)	relative viability ([2]; first compound 10 µM)	relative viability ([2]; first compound 31.62 µM)	relative viability ([2]; first compound 100 µM)	relative viability (Bicalutamide + OSI-027; first compound 0.08 µM)	relative viability (Bicalutamide + OSI-027; first compound 0.253 µM)	relative viability (Bicalutamide + OSI-027; first compound 0.8 µM)	relative viability (Bicalutamide + OSI-027; first compound 2.53 µM)
NCI-H3122	0.914	1.13	1.27	0.964	1.06	0.252	0.263	0.304	0.289	0.248	0.454	0.426	0.365	0.425	0.377	0.951	0.905	1.25	0.881
LCLC-97TM1	0.53	0.482	0.735	0.522	0.51			0.377	0.427	0.186	0.246	0.226	0.263	0.243	0.16	0.598	0.37	0.627	0.422
NCI-H647	0.618	0.744	0.689	0.653	0.633	1.05	1.18	1.25	1.16	1.1	0.439	0.362	0.405	0.393	0.474	0.543	0.628	0.79	0.585
NCI-H838	0.428	0.37	0.422	0.386	0.393	0.959	0.881	0.825	0.871	0.854	0.485	0.461	0.408	0.405	0.457	0.435	0.333	0.449	0.36
H3255	0.523	0.637	0.683	0.679	0.573	0.929	0.987	0.915	0.803	0.973	0.514	0.705	0.794	0.609	0.622	0.525	0.591		0.498
SK-MES-1	0.654	0.552	0.667	0.603	0.68	0.974	0.952	1.02	0.997	1.05	0.362	0.494	0.353	0.427	0.337	0.601	0.607	0.665	0.491
NCI-H1437	0.921	0.861	0.943	0.909	0.847	0.923	0.981	0.914	0.938	0.92	0.672	0.588	0.524	0.583	0.577	0.969	0.776	0.973	0.841
LU99A	0.288	0.27	0.386	0.278	0.317	0.488	0.689	0.591	0.554	0.672	0.894	0.903	0.979	0.949	0.95	0.282	0.258	0.345	0.233
HCC-827	0.779	0.799	0.803	0.778	0.805	0.939	0.919	0.931	0.999	0.964	0.356	0.295	0.305	0.331	0.266	0.795	0.697	0.86	0.751
LK-2	0.235	0.2	0.21	0.223	0.218	0.292	0.238	0.207	0.223	0.257	0.277	0.232	0.287	0.325	0.272	0.195	0.189	0.194	0.207
HCC-366	0.836	1.05	0.812	0.979	1.01	0.569	0.54	0.947	0.548	0.474	0.358	0.302	0.43	0.348	0.351	0.955	0.848	1.08	0.718
BEN	0.307	0.296	0.293	0.277	0.298	0.875	0.935	0.99	0.753	1.01	0.726	0.685	0.773	0.617	0.674	0.265	0.299	0.274	0.276
NCI-H2347	0.453	0.401	0.379	0.357	0.375	0.753	0.602	0.951	0.595	0.684	0.605	0.643	0.541	0.616	0.635	0.395	0.327	0.515	0.427
201T	0.508	0.752	0.71	0.763	0.638	1.06	1.03	1.02	1.02	1.08	0.882	0.835	0.849	0.85	0.928	0.727	0.609	0.735	0.736
NCI-H2170	0.469	0.686	0.769	0.761	0.743	1.33	1.24	1.2	1.29	1.15	0.471	0.464	0.424	0.44	0.438	0.765	0.636	0.668	0.705
NCI-H520	0.243	0.259	0.25	0.23	0.289	0.716	0.707	0.737	0.685	0.673	0.576	0.486	0.473	0.531	0.414	0.237	0.228	0.373	0.251
NCI-H727	0.644	0.624	0.682	0.55	0.638	0.996	0.89	0.844	0.739	0.83	0.815	1.09	0.966	0.915	0.871	0.573	0.546	0.623	0.442
